Reference: patent publication US12053506B2, “Romo1-derived antimicrobial peptides and variants thereof” (priority 2019, dated 2024)
Where two headings read alike, the source gives them in different places. No end group written: not given here.

Columns and labels:
[1] = tested on: methicillin-resistant Staphylococcus aureus (ATCC 33591); settings: for MBC MRSA: Tables 11-15, no unit printed
CRPA = experiment: MBC, evaluation of antibacterial activities of KU-5878 variants; assay type: cell-based; settings: Tables 11-15, no unit printed
[2] = tested on: Human vascular endothelial cells (HUVECs); experiment: Toxicity to human vascular endothelial cells (MTT); assay type: cell-based; settings: 0 μg/ml to 300 μg/ml; FIG. 5
Procedure: PBS was used as a control.
The HUMEC medium was replaced with fresh medium, and KU-5878, melittin or magainin 2 were dispensed at various concentrations (0 μg/ml to 300 μg/ml). Then, each well was treated with 100 μl of MTT reagent and incubated at 37° C. for 2 hours. Then, the medium and the peptide were carefully removed so as not to separate the cells, and 100 μl of DMSO (dimethyl sulfoxide) was added to each well, and the absorbance at a wavelength of 570 nm was measured using a spectrophotometer. Relative cell viability was calculated as a percentage of the viability of untreated control cells.

mouse red blood cells = assay type: cell-based
Procedure: Red blood cells were diluted with PBS, centrifuged 3 times at 900 g for 10 minutes, and washed. 100 μl of the diluted red blood cell solution (10% v/v PBS) was dispensed into each well of a 96-well microplate, and KU-5878, KU-5878-K4, KU-5878-K4-D, melittin, magainin 2 or daptomycin was added to each well which was then filled with PBS to 200 μl, followed by reaction by incubation at 37° C. for 1 hour. Then, the supernatant of the reaction solution was separated, and the absorbance at a wavelength of 550 nm was measured using a spectrophotometer. As control, PBS and 0.1% Triton X-100 (Triton X-100) solution were used.
Based on the results of measurement of the absorbance, the degree of red blood cell destruction was calculated according to Equation 1 below, and the results of the calculation are shown in FIG. 6. The % intact RBC=100(%)−[(absorbance of peptide-treated red blood cell solution−absorbance of PBS-treated red blood cell solution)/(absorbance of Triton X-100-treated red blood cell solution−absorbance of PBS-treated red blood cell solution)×100(%)] [Equation 1]

KTMMQSGGTFGTFMAIGMGIR [KU-5878]
MBC value (μg/ml) against methicillin-resistant Staphylococcus aureus ([1]; ATCC 33591, 4 h): 100 µg/mL | MBC MRSA [1]: 110 µg/mL | MBC MRSA ([1]; listed as 5878): 100 µg/mL | MBC CRPA (CRPA): 110 µg/mL | toxicity to the HUVECs (relative cell viability, MTT) [2]: very low toxicity | hemolysis of red blood cells (mouse red blood cells): little hemolysis even at a high concentration
